In patent US10716768B2, “Method for treating abnormal B-amyloid aggregation mediated diseases” (NATIONAL TAIWAN NORMAL UNIVERSITY, priority 2016, dated 2020):

How the values were obtained:
[1] = Cytotoxicity of induced cells, propidium iodide staining and flow cytometer; assay type: cell-based, human; details: human
[2] = Solubility test in cell culture medium; assay type: physicochemical; details: plasma or biological fluid, vortex mixing, centrifugation five minutes at 13,000 g, read-out: solubility in cell culture medium (completely soluble up to)
Description: This experiment was to test the solubility of compound (I-1), compound (I-2), compound (I-3), compound (I-4), and compound (I-5) in cell culture medium. After vortex mixing and centrifugation for five minutes at 13,000 g, the compounds were completely soluble in the cell culture medium up to 100 μM.

[3] = MTT cytotoxicity test, un-induced cells; assay type: cell-based, human; details: human
Description: (§1) This experiment was to test the toxicity of compounds (I-1), (I-2), (I-3), (I-4), and (I-5) to un-induced Tet-On Aβ-GFP Ftp-In 293 and SH-SY5Y cells. Un-induced Tet-On Aβ-GFP Flp-In 293 and SH-SY5Y cells were treated with compounds (I-1), (I-2), (I-3), (I-4), and (I-5) in different concentrations from 0.1 to 100 μM for 24 hours, followed by conducting MTT assay to test the cytotoxicity of the compounds. The experiment also tested the cytotoxicity of licochalcone A (0.1-100 μM) and curcumin (1-10 μM) to the un-induced Tet-On Aβ-GFP Flp-In 293 and SH-SY5Y cells. In the experiment, the relative cellular survival rate of untreated cells was 100%, the half maximal inhibitory concentration (IC50) of each compound was calculated by using interpolation, and the sample number of each group was n=3.

[4] = tested on: Aβ aggregation in Tet-On Aβ-GFP Flp-In 293 cells; assay: Inhibition of abnormal β-amyloid aggregation test (GFP fluorescence, high-content analysis); assay type: cell-based, human; details: for GFP fluorescence: untreated 100%
Description: GFP fluorescence was used to reflect Aβ aggregation status as Aβ aggregated to cause the fused GFP misfolded, and thus cause the reduction of fluorescence on Aβ-GFP expressing cells. Inhibition of Aβ aggregation may improve GFP misfolding and lead to increased fluorescence on Aβ-GFP expressing cells. […] Then doxycycline (Dox) (2 μg/mL) was added to the cells for 64 hours to induce the Aβ-GFP expression, and GFP fluorescence was assessed by a high-content analysis (HCA) system (ImageXpressMICRO, available from Molecular Devices). The experiment also tested the inhibition effect of Aβ aggregation by curcumin (1-10 μM) and licochalcone A (0.001-100 μM). In the experiment, the amount of fluorescence measured in the untreated group (untreated with compounds) was 100%, and the sample number of each group was n=3.

[5] = tested on: Tet-On Aβ-GFP Flp-In 293 cells; assay: Cytotoxicity of induced cells, propidium iodide staining and flow cytometer; assay type: cell-based, human; details: induced cells, PI staining, flow cytometer (FIG. 3C)
[6] = tested on: un-induced Tet-On Aβ-GFP Flp-In 293 and SH-SY5Y cells; assay: MTT cytotoxicity test, un-induced cells; assay type: cell-based, human; details: MTT, 24 hours; range over un-induced Flp-In 293 (FIG. 1A) and SH-SY5Y (FIG. 1B) cells
Description: as §1

[7] = 0.001-1 μM, cell survival rate more than 80%
[8] = 0.001-10 μM, cell survival rate more than 80%

Row | solubility [2] [µM] | SMILES | IC50 [1] [µM] | IC50 at 24 h [3] [µM] | further results
1 | ≥ 100 | Cc1ccc(/C=C/C(=O)c2c(O)c3ccccc3oc2=O)cc1 [Compound (I-3)] | 80.6 | ≥ 55 | GFP fluorescence [4, 8]: 103-117%
2 | ≥ 100 | COc1cccc(/C=C/C(=O)c2ccc(O)cc2)c1O [Compound (I-4)] | 60.9 | 45 to 71 | GFP fluorescence ([4]; 0.01-1 μM, cell survival rate more than 80%): 102-105%
3 | ≥ 100 | O=C(c1ccccc1)c1cc2c(O)cccc2oc1=O [Compound (I-5)] | 95.1 | > 100 | GFP fluorescence [4, 8]: 107-125%

The next lines start with the compound.

Row | SMILES | solubility [2] [µM] | IC50 [1] [µM] | IC50 at 24 h [3] [µM] | further results
4 | COc1ccc(C(=O)/C=C/c2cc(Br)ccc2O)cc1 [Compound (I-1)] | ≥ 100 | 47.7 | 8 to 51 | GFP fluorescence ([4]; 0.001-0.1 μM, cell survival rate more than 80%): 103-111%
5 | COc1ccc(O)c(/C=C/C(=O)c2ccccc2)c1 [Compound (I-2)] | ≥ 100 | 57.5 | 10 to 51 | GFP fluorescence [4, 7]: 105-112%
6 | COc1cc(/C=C/C(=O)CC(=O)/C=C/c2ccc(O)c(OC)c2)ccc1O [curcumin, reference compound] |  |  | > 10 | cell number ([4]; curcumin 2.5 μM and 5 μM): more than 80 % of untreated cells; GFP fluorescence ([4]; curcumin 2.5 μM and 5 μM): 107-120%
7 | C=CC(C)(C)c1cc(/C=C/C(=O)c2ccc(O)cc2)c(OC)cc1O [licochalcone A, reference compound] |  |  |  | IC50 [5]: 62.3 µM; IC50 [6]: 47 to 51 µM; GFP fluorescence [4, 7]: 105-115%
